Test results: PMC6562865, “Vitis vinifera L. Leaf Extract Inhibits In Vitro Mediators of Inflammation and Oxidative Stress Involved in Inflammatory-Based Skin Diseases” (Antioxidants, 2019)
Like-named read-outs stand apart in the source and are kept apart here.

What was measured:
[1] = In vitro skin permeation study, Franz diffusion cell method; type: in vitro ADME, human; details: for recovery: human
Description: VVWE was characterized by a validated HPLC-DAD method as previously described. Briefly, two different HPLC methods coupled with a Diode Array Detector (DAD) have been used, the first for anthocyanin detection at 520 nm by the use of a Synergi 4u MAX-RP 80 Å column (250 × 4.60 mm × 4 μm) (Phenomenex, Torrance, CA, USA) and the second for flavonols and caffeic acid derivative detection at 360 nm by Synergi 4u MAX-RP 80 Å column (250 × 2 mm × 4 μm) (Phenomenex, Torrance, CA, USA). The anthocyanins standards, hyperoside and kaempferol-3-O-glucoside, were from Extrasynthese (Genay, France); all the other standards and solvents were bought from Sigma-Aldrich (St. Louis, MO, USA).
The human epidermis membrane used for in vitro permeation studies was obtained from the abdominal skin of a single donor. The epidermis was prepared according to the heat separation method, as previously reported.
Ex vivo skin permeation study: the study was performed using the Franz diffusion cell method. The human epidermis was mounted carefully on the receiver compartment of the Franz’s cell with the stratum corneum side in contact with donor solution. The receiver compartment was filled with freshly prepared degassed HCl 0.1 M solution (receiver phase). VVWE (150 mg) solubilized in 0.1 M HCl:EtOH (50:50, v/v) was loaded in the donor compartment (0.5 mL). At predetermined intervals (1, 5, 7, 24, 32, 48 h), 0.2-mL samples were removed from the receiver compartment and immediately replaced with fresh receiver phase. Sink conditions were maintained throughout the experiment. The samples were assayed by HPLC analysis. Four parallel experiments were performed.

IL-8 = IL-8 release in HaCaT cells (ELISA); type: cell-based, human; details: for IL-8 release induced by TNF-α, pure compounds: 0.1–100 μM, up to the maximum concentration tested (100 μM)
Description: Cells were grown in 24-well plates for 48 h (30,000 cells per well) before the cytokine treatment. IL-8 was quantified using a Human Interleukin-8 ELISA Development Kit as previously described. Preliminary time-course experiments were performed to set the best conditions for further experiments. HaCaT were treated with TNF-α (10 ng/mL), LPS (5 μg/mL), or H2O2 (100 μM), for 3, 6, 24, and 30 h. The IL-8 secretion induced by TNF-α or LPS was tested after 6 h of treatment, while the 24-h time point was chosen for H2O2. Epigallocatechin-3-gallate (EGCG) (20 μM) was used as the reference inhibitor of IL-8 secretion.
(§1) HaCaT cells were grown in 24-well plates for 48 h (30,000 cells per well), washed with phosphate-buffered saline (PBS), and exposed to UVB (40 mJ/cm^2) light source (Triwood 31/36, W36, V230, Helios Italquartz, Milano, Italy) in a glass bath. Radiation time (about 50 s) was adjusted for each experimental day, measuring energy emission by the LP 471 UVB probe (Delta OHM, Padova, Italy). After radiation, serum free fresh culture medium was immediately added. For the evaluation of IL-8 release, cells were treated for additional 9 h, a time point selected in preliminary time-course experiments. For NF-κB (p65) translocation, HaCaT cells were treated for 1 h after UVB radiation. EGCG (20 μM) was used as reference inhibitor.

NF-κB = test: NF-κB-driven transcription, NF-κB-LUC transient transfection luciferase assay in HaCaT cells; type: cell-based, human; details: transfected HaCaT, 6 h, 20 μM
Description: (§2) HaCaT cells were plated in 24-well plates and transiently transfected with the plasmid NF-κB-LUC or native IL-8-LUC, both at 250 ng per well, using Lipofectamine® 2000, according to previous studies. Sixteen hours later, the cells were treated for 6 h with increasing concentrations of VVWE in the presence of the pro-inflammatory mediators (TNF-α at 10 ng/mL or LPS at 5 μg/mL). After six hours, cells were harvested and the luciferase assay was performed using the BriteliteTM Plus reagent (PerkinElmer Inc., Massachusetts, USA) according to the manufacturer’s instructions. Data were expressed considering 100% of the luciferase activity related to the cytokine-induced promoter activity.

MMP-9 = MMP-9 release in HaCaT cells (ELISA); type: cell-based, human; details: 20 μM
Description: MMP-9 secretion was performed on HaCaT cells treated with TNF-α (10 ng/mL) and (LPS 5 μg/mL) for 3, 6, 24, and 48 h. Cells were grown in 24-well plates (30,000 cell/well) for 48 h, before the treatment. Human MMP-9 ELISA Kit from RayBio® (Norcross GA, USA) was used to quantify MMP-9 secretion according to manufacturer’s instructions. 300 μL of samples in duplicate were transferred into a 96-well plate coated with anti-human MMP-9 and incubated overnight at 4 °C with gentle shaking. MMP-9 secreted was detected by the use of biotinylated and streptavidin–horseradish peroxidase (HRP) conjugate antibodies as previously described. The quantitative measurement of MMP-9 was done using an optimized standard curve supplied with the ELISA kit (8.23–6000 pg/mL). The MMP-9 secretion reached the maximum at 24 h for both TNF-α and LPS. VVWE was tested at 10–50 μg/mL in the presence of stimuli and between 2.5–200 μg/mL without the pro-inflammatory mediators.

VEGF = VEGF release in HaCaT cells (ELISA); type: cell-based, human; details: 20 μM
Description: Cells were grown in 24-well plates for 48 h (30,000 cells per well) before challenge with the pro-inflammatory mediator. VEGF was quantified by the Human VEGF ELISA Development Kit. Briefly, Corning 96-well EIA/RIA plates (Sigma-Aldrich, Milan, Italy) were coated with the antibody provided in the ELISA Kit (PeproTech Inc., London, UK) overnight at 4 °C. After blocking the reaction, 300 μL of samples were transferred into wells at room temperature for 2 h. The amount of VEGF in the samples was detected by spectroscopy (signal read: 450 nm, 0.1 s) as described above. The quantitative measurement of VEGF was done using an optimized standard curve supplied with the ELISA set (100–2000 pg/mL). […] EGCG (20 μM) was used as the reference inhibitor of VEGF secretion.

IL-8 promoter = IL-8 promoter activity, IL-8-LUC transient transfection luciferase assay in HaCaT cells; type: cell-based, human; details: transfected HaCaT, 6 h, 20 μM
Description: as §2

NF-κB (p65) = NF-κB (p65) nuclear translocation in HaCaT cells; type: cell-based, human; details: 20 μM
Description: For the evaluation of the NF-κB (p65) translocation, HaCaT were plated at the concentration of 3 × 10^6 cells/mL in 100-mm plates with fresh complete medium. After 48 h, cells were treated for 1 h with the inflammatory mediators (TNF-α at 10 ng/mL or LPS at 5 μg/mL) and the extract (10–50 μg/mL) under study, using FBS-free medium. Nuclear extracts were prepared using the Nuclear Extraction Kit from the Cayman Chemical Company (Ann Arbor, MI, USA) as previously described.
Data were expressed considering 100% of the absorbance related to the cytokine-induced NF-κB nuclear translocation. EGCG (20 μM) was used as the reference inhibitor of the NF-κB nuclear translocation. The results are the mean ± SD of three experiments in triplicate.
as §1

[2] = human epidermis, Franz cell, 150 mg VVWE, four replicates
[3] = µg per g VVWE, human epidermis, Franz cell, 150 mg VVWE
[4] = µg per g VVWE, human epidermis, Franz cell, 150 mg VVWE, 48 h, receiver phase
[5] = human epidermis, Franz cell, 150 mg VVWE, four replicates, read-out: Permeated Amount (% Recovery) (converted)
[6] = human epidermis, Franz cell, 150 mg VVWE, four replicates, read-out: Retained Amount in the Epidermidis (% Recovery) (converted)

Row | Molecule | Permeated Amount (% Recovery) [1, 2] | Retained Amount in the Epidermidis (% Recovery) [1, 2] | Retained Amount in the Epidermidis ± SD [1, 3] | Permeated Amount ± SD [1, 4] | recovery [1, 5] | recovery [1, 6] | other results
1 | OC[C@H]1O[C@@H](Oc2cc3c(O)cc(O)cc3[o+]c2-c2cc(O)c(O)c(O)c2)[C@H](O)[C@@H](O)[C@@H]1O [Delphinidin 3-O-glucoside] | 0.050% | 0.004% | 0.04 ± 0.08 µg/g | 0.48 ± 0.68 µg/g | – | – | –
2 | OC[C@H]1O[C@@H](Oc2cc3c(O)cc(O)cc3[o+]c2-c2ccc(O)c(O)c2)[C@H](O)[C@@H](O)[C@@H]1O [Cyanidin 3-O-glucoside] | 0.071% | 0.013% | 0.30 ± 0.60 µg/g | 1.63 ± 2.08 µg/g | – | – | –
3 | C[C@@H]1O[C@@H](OC[C@H]2O[C@@H](Oc3c(-c4ccc(O)c(O)c4)oc4cc(O)cc(O)c4c3=O)[C@H](O)[C@@H](O)[C@@H]2O)[C@H](O)[C@H](O)[C@H]1O [Rutin] | – | – | 0.80 ± 0.91 µg/g | 0.30 ± 0.35 µg/g | 0.023% | 0.061% | –
4 | O=C(/C=C/c1ccc(O)c(O)c1)O[C@@H](C(=O)O)[C@@H](O)C(=O)O [Caftaric acid] | – | – | 10.20 ± 9.00 µg/g | 47.59 ± 27.64 µg/g | 0.476% | 0.102% | Permeated Amount ± SD ([1]; µg per g VVWE, human epidermis, Franz cell, 150 mg VVWE, 48 h, receiver phase, listed as caftaric acid): 47.59 µg/g; Retained Amount in the Epidermidis ± SD ([1]; µg per g VVWE, human epidermis, Franz cell, 150 mg VVWE, listed as caftaric acid): 10.20 µg/g; IL-8 release induced by TNF-α, pure compounds (IL-8): failed to reduce IL-8 release
5 | O=C(O)[C@H]1O[C@@H](Oc2c(-c3ccc(O)c(O)c3)oc3cc(O)cc(O)c3c2=O)[C@H](O)[C@@H](O)[C@@H]1O [Quercetin 3-O-glucuronide] | – | – | – | – | – | – | Permeated Amount (% Recovery) [1]: 0.177%; IL-8 release induced by TNF-α, pure compounds (IL-8): failed to reduce IL-8 release
6 | O=c1c(O[C@@H]2O[C@H](CO)[C@H](O)[C@H](O)[C@H]2O)c(-c2ccc(O)c(O)c2)oc2cc(O)cc(O)c12 [Hyperoside] | – | – | 1.34 ± 1.43 µg/g | 0.47 ± 0.68 µg/g | 0.02% | 0.058% | –
7 | COc1cc(-c2[o+]c3cc(O)cc(O)c3cc2O[C@@H]2O[C@H](CO)[C@@H](O)[C@H](O)[C@H]2O)cc(O)c1O [Petunidin 3-O-glucoside] | – | – | – | – | – | – | Permeated Amount (% Recovery) [1]: 0.058%; Permeated Amount ± SD [1]: 0.38 ± 0.53 µg/g
8 | Epigallocatechin-3-gallate [EGCG] | – | – | – | – | – | – | inhibition of LPS-induced IL-8 secretion (IL-8; LPS 5 μg/mL, 6 h, 20 μM): 84.9%; inhibition of TNF-α-induced IL-8 secretion (IL-8; TNF-α 10 ng/mL, 6 h, 20 μM): 62.1%; inhibition of UVB-induced IL-8 secretion (IL-8; UVB 40 mJ/cm^2, 9 h, 20 μM): 61.7%; inhibition of LPS-induced NF-κB-driven transcription (NF-κB; LPS 5 μg/mL): 29.9%; inhibition of TNF-α-induced NF-κB-driven transcription (NF-κB; TNF-α 10 ng/mL): 59.9%; inhibition of LPS-induced MMP-9 secretion (MMP-9; LPS 5 μg/mL, 30 h): no inhibition; inhibition of TNF-α-induced MMP-9 secretion (MMP-9; TNF-α 10 ng/mL, 24 h): 38.0%; inhibition of H2O2-induced VEGF secretion (VEGF; H2O2 100 μM, 24 h): 100%; inhibition of LPS-induced VEGF secretion (VEGF; LPS 5 μg/mL, 30 h): 100%; inhibition of TNF-α-induced VEGF secretion (VEGF; TNF-α 10 ng/mL, 24 h): 78.7%; inhibition of LPS-induced IL-8 promoter activity (IL-8 promoter; LPS 5 μg/mL): 33.3%; inhibition of TNF-α-induced IL-8 promoter activity (IL-8 promoter; TNF-α 10 ng/mL): 35.9%; inhibition of LPS-induced NF-κB nuclear translocation (NF-κB (p65); LPS 5 μg/mL, 1 h): 53.2%; inhibition of TNF-α-induced NF-κB nuclear translocation (NF-κB (p65); TNF-α 10 ng/mL, 1 h): 62.4%; inhibition of UVB-induced NF-κB nuclear translocation (NF-κB (p65); UVB 40 mJ/cm^2, 1 h): 39.1%
9 | COc1cc(-c2[o+]c3cc(O)cc(O)c3cc2O[C@@H]2O[C@H](CO)[C@@H](O)[C@H](O)[C@H]2O)cc(OC)c1O [Malvidin 3-O-glucoside] | 0.072% | 0.023% | 0.29 ± 0.58 µg/g | 0.92 ± 1.22 µg/g | – | – | –

Continued, in another order:

Row | Permeated Amount (% Recovery) [1, 2] | Retained Amount in the Epidermidis (% Recovery) [1, 2] | Retained Amount in the Epidermidis ± SD [1, 3] | Permeated Amount ± SD [1, 4] | Molecule | recovery [1, 5] | recovery [1, 6] | other results
10 | 0.055% | 0.094% | 3.53 ± 3.90 µg/g | 2.09 ± 1.70 µg/g | O=c1c(O[C@@H]2O[C@H](CO)[C@@H](O)[C@H](O)[C@H]2O)c(-c2ccc(O)cc2)oc2cc(O)cc(O)c12 [Kaempferol 3-O-glucoside] | – | – | –
11 | 0.114% | 0.030% | 0.58 ± 1.17 µg/g | 2.17 ± 2.72 µg/g | COc1cc(-c2[o+]c3cc(O)cc(O)c3cc2O[C@@H]2O[C@H](CO)[C@@H](O)[C@H](O)[C@H]2O)ccc1O [Peonidin 3-O-glucoside] | – | – | –
12 | – | – | 13.58 ± 15.88 µg/g | 8.74 ± 9.50 µg/g | O=c1c(O[C@@H]2O[C@H](CO)[C@@H](O)[C@H](O)[C@H]2O)c(-c2ccc(O)c(O)c2)oc2cc(O)cc(O)c12 [Quercetin 3-O-glucoside] | 0.04% | 0.063% | Permeated Amount ± SD ([1]; µg per g VVWE, human epidermis, Franz cell, 150 mg VVWE, 48 h, receiver phase, listed as quercetin 3-O-glucoside): 8.74 µg/g; Retained Amount in the Epidermidis ± SD ([1]; µg per g VVWE, human epidermis, Franz cell, 150 mg VVWE, listed as quercetin 3-O-glucoside): 13.58 µg/g; IL-8 release induced by TNF-α, pure compounds (IL-8): failed to reduce IL-8 release
